Consider 1 substance from patent publication US20090042238A1, “Method of evaluating cell function, system for evaluating cell function, fluorescent microscope system, phototherapy method and phototherapy system” (NIKON CORPORATION, priority 2006, published 2009).

In the test the test system is mitochondria in living cells. Nature of the test: evaluation of cell function (phototoxic property) with confocal fluorescence microscope system. Type of test: cell-based. The source says:
The following describes an example of the evaluation of cell function according to the present invention, performed with the confocal fluorescence microscope system of the First Embodiment.
RH123, used as a fluorescent dye, was applied to the mitochondria in living cells to prepare a specimen. The specimen was two-dimensionally scanned by irradiating an argon laser (488 nm) emitted in a predetermined intensity from the excitation light source 11, so as to obtain a fluorescence image of one frame.
FIG. 8(A) is the actual first fluorescence image obtained. Predetermined positions of the mitochondria (stained area) and the cellular cytoplasm (reference point) were specified by rectangular shaped frames, and a mean value of brightness values of the pixels in each of these specific areas was determined. These mean values were used as the brightness value of the mitochondria, and the brightness value of the cellular cytoplasm, respectively.
This procedure of obtaining the fluorescence image was repeated under the same conditions, and the brightness values of the mitochondria and the cellular cytoplasm were measured. FIG. 8(B) is the actual 50th fluorescence image, and FIG. 8(C) is the actual 150th fluorescence image obtained. It can be seen from FIG. 8 that the fluorescence image indeed undergoes changes as described in the First Embodiment with reference to FIG. 2.

Consider Rhodamin 123 [RH123], for which the “frame number in which the brightness value of the cellular cytoplasm has the peak (functional depression of the mitochondria complete)” value (argon laser (488 nm) of a predetermined intensity, repeated imaging, FIG. 9(A)) is 50. The “frame number in which the brightness value of the cellular cytoplasm has the peak” value (laser beam having a weaker intensity than in FIG. 9(A), otherwise same conditions, FIG. 9(B)) is given as 70.
